The values below come from US20220274967A1, “BCAT MODULATION” (Icagen, LLC, priority 2019, published 2022).

Where two headings read alike, the source gives them in different places. A value given as a limit tells only on which side of the number the result lay.

The subject of series [1] is Primary human fibroblasts from a patient with propionic acidemia (Coriell #GM00371). As to the kind of experiment: Cell viability (cell Titer-Glo) of propionic acidemia fibroblasts. It is filed as cell-based. Particulars: FIG. 1. As for the experimental part:
(§1) Primary human fibroblasts from a patient with propionic acidemia (Coriell #GM00371) were plated in complete media (EMEM, 15% FBS) in a 96-well plate at 10,000 cells/well and incubated overnight at 37° C. at 5% CO2. Compounds were serially diluted initially in DMSO then into serum-free EMEM media. The cells were then washed with D-PBS before addition of the media containing the diluted compound, and were then incubated at 37° C. at 5% CO2 overnight.
Cell viability was also determined with cell Titer-Glo reagent (Promega) by addition of equal volumes of D-PBS and Cell Titer-Glo reagent to cell wells and following manufacturer's recommendations for detection of luminescence signal.
(In general: ATP-based viability assays read luminescence as a measure of living cells.)

Another series concerns propionyl carnitine. Description: Propionyl carnitine in conditioned media of propionic acidemia fibroblasts. It is filed as cell-based, human. The settings on record: 24 hours, increasing concentrations, FIG. 1. As to the method: could inhibit levels of the downstream metabolite propionyl carnitine, which is found to be elevated in patients with propionic acidemia, by analyzing propionyl carnitine levels in conditioned media in human fibroblasts from a patient with propionic acidemia treated with a dose response of the compound of the disclosure.
as §1
The conditioned media was removed from cells after 24 hours of compound treatment and was diluted 2× with D3-propionyl carnitine internal standard diluted in MS-grade methanol. Plates were sealed and samples were frozen at −80DGC for more than 30 minutes, followed by thawing at room temperature and centrifugation for 10 minutes at 4000 rpm. The samples were then analyzed for propionyl carnitine by LC-LC/MS using TSQ Vantage using a Kinetex 2.6 μm Biphenyl 2.1×50 mm column with Mobile Phase A of 95% (0.1% Formic acid in Water)+5% Water and Mobile Phase B of 95% McOH+5% (0.1% Formic acid in Water).

The next series concerns the target T1, BCAT2 (Homo sapiens, UniProt O15382).
T1 sequence (O15382 28-392): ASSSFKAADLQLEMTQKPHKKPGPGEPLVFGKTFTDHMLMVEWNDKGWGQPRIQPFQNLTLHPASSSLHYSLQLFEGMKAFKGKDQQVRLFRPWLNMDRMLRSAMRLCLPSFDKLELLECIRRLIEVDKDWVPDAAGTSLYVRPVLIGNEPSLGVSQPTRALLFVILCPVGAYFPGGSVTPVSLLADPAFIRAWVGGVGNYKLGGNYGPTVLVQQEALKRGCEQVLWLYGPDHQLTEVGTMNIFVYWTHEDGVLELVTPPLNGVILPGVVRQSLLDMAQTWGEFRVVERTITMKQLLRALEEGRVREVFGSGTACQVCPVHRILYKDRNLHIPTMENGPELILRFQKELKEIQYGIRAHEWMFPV
As to the kind of experiment: BCAT2 enzyme inhibition (human). The series is classed as biochemical. In outline: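 Cell-free coupled fluorescent assay: human BCATm converts branched-chain amino acids and α-ketoglutarate to L-glutamate, which L-glutamate oxidase and HRP link to resorufin formation from Amplex Red; activity taken as reduced glutamate signal.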

The target in a further series is T2, BCAT1 (Homo sapiens, UniProt P54687).
T2 sequence (P54687 1-386): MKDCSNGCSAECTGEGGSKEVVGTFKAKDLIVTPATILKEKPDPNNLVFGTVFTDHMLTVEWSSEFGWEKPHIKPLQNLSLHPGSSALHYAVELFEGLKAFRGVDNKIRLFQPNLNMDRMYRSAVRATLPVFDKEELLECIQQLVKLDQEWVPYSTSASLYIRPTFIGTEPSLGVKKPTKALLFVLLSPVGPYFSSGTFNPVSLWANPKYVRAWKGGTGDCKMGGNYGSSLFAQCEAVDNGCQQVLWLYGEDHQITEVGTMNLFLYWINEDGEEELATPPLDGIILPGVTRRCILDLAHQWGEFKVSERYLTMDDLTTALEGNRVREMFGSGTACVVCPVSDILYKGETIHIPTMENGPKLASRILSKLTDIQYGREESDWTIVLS
As to the kind of experiment: BCAT1 enzyme inhibition (human), Glutamate Glo luminescence. The series is classed as biochemical. In outline: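 BCAT1 enzyme (0.06 ug/ml final) was preincubated with compound (3-0.0001 μM, 0.3% DMSO) for 10 or 60 min at room temperature in 50 mM Tris/0.05% TWEEN-20. The reaction then ran 10 min with 300 μM L-leucine and 250 μM alpha-ketoglutaric acid, was acid-quenched, and glutamate was read by luminescence. IC50 came from a 4-parameter fit, normalized to 10 μM VS558CSA inhibition.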

The nature of series [2]: 3-HIB assay in vitro, direct MS assay of conditioned media. The series is classed as cell-based, human. Particulars: GM00371 cells, read-out: 3HIB INHIBITION IC50 (μM) MEAN GM00371 cells Direct MS Assay. As to the method:
Cell Plating: Cells (Coriell Institute GM00371 cells) were plated (96-well clear bottom sterile plate; Greiner 655098) at 10,000 cells/0.1 mL in Eagle's minimum essential medium (EMEM)/15% FBS (Gibco 16000-044) with a Combi dispenser in a cell culture hood and incubated at 37° C. and 5% CO2 overnight.
Compound Dilution: Compound were prepared as 33.3× intermediate dilution in DMSO in 96 well round polystyrene plates. For 30 μM final maximum start with 30 μL of 10 mM in DMSO. 10-12 1:3 serial dilutions were prepared from left to right (20 μL+40 μL DMSO). A 10× secondary dilution was prepare in EMEM by taking 7.5 μL 33.3× and transfer to replicate 96 well round polystyrene plates and then adding 242.5 μL EMEM A 1× final dilution in EMEM was prepared by taking 50 μL 10× dilution and transferring to replicate 96 well polypropylene assay block (Costar 3956) and adding 450 μL EMEM A control was prepared for maximal compound inhibition by taking 20 μL 10 mM Reference Compound A and adding 40 μL DMSO for a concentration of 3.3 mM To 7.5 μL of the 3.3 mM Reference Compound A solution and added 242.5 μL EMEM to make a 100 μM solution. The subsequent Reference Compound A solution was diluted with EMEM to achieve a final concentration of 10 μM. The structure of Reference Compound A is:
A control was prepared for maximal compound toxicity by taking 7.5 μL Reference Compound B and 242.5 μL EMEM to make […]. 50 μL of that 100 μM Reference Compound B solution was combined with 450 μL EMEM to achieve a concentration of 30 μM. The structure of Reference Compound B is
A DMSO Control was prepared by dilution 7.5 μL with 242.5 μL EMEM and taking 50 μL of the subsequent solution and diluting with 450 μL EMEM.
Compound Treatment: Media was aspirated from the cells and 100 μL of D-PBS (ThermoFisher 14190144) was added and then removed. 100 μL of diluted compound was added to the cells in the place and the cells were incubated at 37° C. and 5% CO2 for 24 hours.
Collection of Conditioned Media: For 3HIB MS detection: 20 μL conditioned media was removed from the cells and was transferred to a labeled replicate 96 well polypropylene assay plate (VWR 62408-946). And the plate was heat sealed and stored at −80° C.
3HIB Derivatization (Generalized SOP): The media collected for 3HIB MS detection was derivatized under the following conditions. Buffer: 0.1M 1-Ethyl-3-(3-dimethylaminopropyl)carbodiimide (EDC) dissolved in 0.1 M 2-(N-morpholino)ethanesulfonic acid ([…]) adjusted to pH 5.6. Buffer prep: weighed 10.6 g MES (Sigma #M-5287) per 500 mL HPLC grade H2O. Stored at 4° C.; 0.1M EDC: Weighed 1.971 g EDC (#E-1769) per 100 mL MES. Adjusted pH to 5.6 with ˜40 drops of 1N NaOH and stored at 4° C. Buffer has a short half-life should be used within two weeks.
Derivatization: To 20 μL sample was added 60 μL 5 uM 3HIB-4C13 internal standard followed by 20 μL EDC in MES and 100 μL MES. The plate was sealed and incubate at 50° C. for […] then centrifuged at 4000 rpm at 6° C. for 10 minutes. LC-MS analysis was then conducted and the data was processed using standard methods.

Series [3] concerns branched chain amino acids (BCAA) in plasma. Description: Repetitive treatment with BCAT2 inhibitor compound: plasma amino acids. It is filed as in vivo. The settings on record: mice. As to the method: Male, C57Black/6J mice (6-7 weeks, Jackson Laboratories, Bar Harbor, Me.) were used in all in vivo experiments. Animals were maintained on a 12 hour light/dark reverse cycle in a temperature- and humidity-controlled room with access to food and water ad libitum. Before the experiment, animals underwent a 7-day acclimation period.
All biological samples were stored in −80° C. until analysis. […] In particular, 20 μL of mouse plasma were precipitated with 180 μL acetonitrile containing 5 μg/ml D8-Valine. Samples were vortexed vigorously and centrifuged to remove precipitated protein. 2 μL of supernatant was injected on a Phenomenex Gemini C18 column (4.6 mm×150 mm, 5 μm particle size) for separation under a linear gradient from 2% ACN to 50% ACN in 10 minutes followed by a 7 minute equilibration with 2% ACN.
Animals were grouped based on pair matched body weight and received either vehicle (0.5% HPMC K100+0.1 Tween 80, pH=10.0) or a daily dose of compound (200 mg/kg, PO) for 9 days. From day 1 to day 5, all animals were provided with normal diet. […] On day 9, blood, bladder urine as well as tissue samples (liver, brain, heart, muscle and kidney) were harvested 4 hours after the last dose. Three mice in each treatment/diet group were retained for a 3-day recovery phase observation. On day 12, blood, bladder urine as well as tissue samples (liver, brain, heart, muscle and kidney) were harvested. During the entire study course (day 1 to day 12), mice were able to access food and water freely. Body weights were measured daily and any abnormal behavior for toxicity signs was recorded.

Series [4] in a line: Repetitive treatment: body weight and toxicity signs. The series is classed as in vivo. Particulars: mice, 200 mg/kg PO once a day for 9 days and 3-day recovery. As to the method:
[…]. Animals were maintained on a 12 hour light/dark reverse cycle in a temperature- and humidity-controlled room with access to food and water ad libitum. Before the experiment, animals underwent a 7-day acclimation period. All procedures involving mice were approved by the Institutional Animal Care and Use Committee of the University of Arizona and were conducted in accordance with Principles of Laboratory Animal Care (National Institutes of Health Publication 85-23, revised in 1985).
Animals were grouped based on pair matched body weight and received either vehicle (0.5% HPMC K100+0.1 Tween 80, pH=10.0) or a daily dose of compound (200 mg/kg, PO) for 9 days. From day 1 to day 5, all animals were provided with normal diet. On day 6, the diet was switched to a precursor enriched chow (700% isoleucine, valine and threonine enriched, TD. 140829; Envigo) for half of the animals; the other half were still fed with normal diet. On day 9, blood, bladder urine as well as tissue samples (liver, brain, heart, muscle and kidney) were harvested 4 hours after the last dose. Three mice in each treatment/diet group were retained for a 3-day recovery phase observation. On day 12, blood, bladder urine as well as tissue samples (liver, brain, heart, muscle and kidney) were harvested. […] Body weights were measured daily and any abnormal behavior for toxicity signs was recorded.

A further series has as its system GM00371 cells. As to the kind of experiment: Viability assay (Cell titer glo) in the 3-HIB assay. It is filed as cell-based, human. Particulars: 24 hours, read-out: 3HIB INHIBITION IC50 (μM) MEAN GM00371 cells Viablility Assay. In outline:
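GM00371 cells (10,000/well, EMEM/15% FBS) were exposed for 24 h at 37 °C to compounds in 1:3 serial dilution from 30 μM top concentration in EMEM. Reference Compound B at 30 μM served as maximal-toxicity control. Viability read as CellTiter-Glo luminescence.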

Setting [5] is: 200 mg/kg PO for 9 days, normal diet, FIG. 4A.
The mark [6] stands for this setting: 200 mg/kg PO, Day 9, precursor-enriched diet, FIG. 4B.

Consider `CNC(=O)c1ccc2c(c1)nc(-c1ccccn1)n2C1CCCC(NC(=O)c2ccc(Br)s2)C1` (stereo not drawn) [drawing 84], for which the “impact on cell viability” value in series [1] is “little impact”. For the same molecule, in the series with propionyl carnitine, the propionyl carnitine levels entry is given as “inhibited”.
As for `CNC(=O)c1ccc2c(c1)nc(-c1ncccc1F)n2[C@H]1CCC[C@@H](NC(=O)c2ccc(Cl)s2)C1` [Compound 197], the IC50 (in general, the concentration at which inhibition is half-maximal) against BCAT2 was less than 100 nM; on BCAT1 it was less than 100 nM; in series [2] (Homo sapiens, 24 h) it was less than 0.1 µM.
As for `CNC(=O)c1ccc2c(c1)nc(-c1ccccn1)n2C1CCCC(NC(=O)c2ccc(Br)s2)C1` (stereo not drawn) [drawing 85], in series [3] (setting [5]), the “plasma level of Leu” value is listed as “significantly increased”, the “plasma level of Ser” value is “not” and the “plasma level of Val” value is recorded as “significantly increased”. Further, in series [3] (setting [6]), the “levels of BCAAs in plasma, compound vs vehicle” value is “no significant changes” and the “plasma level of leucine” value is listed as “slight but significant decrease”. In series [4], the “abnormal behaviors reflecting toxicities” value is recorded as “no obvious abnormal behaviors reflecting toxicities”. Also, the body weight entry in series [4] (FIG. 3A) is “no significant loss”.
As for `CNC(=O)c1ccc2c(c1)nc(-c1ncccc1F)n2[C@H]1CCC[C@@H](NC(=O)c2ccc(Br)s2)C1` [Compound 199], the IC50 against BCAT2 is less than 100 nM; on BCAT1 it was less than 100 nM; in series [2] (Homo sapiens, 24 h) it was less than 0.1 µM.
`CNC(=O)c1ccc2c(c1)nc(-c1ccccn1)n2[C@@H]1CCC[C@H](NC(=O)c2ccc(Br)s2)C1` [Compound 105]: the IC50 was 500 to 1000 nM at BCAT1, 0.5 to 1 µM in the series on GM00371 cells and 0.1 to 0.5 µM in series [2] (24 hours).
`CNC(=O)c1ccc2c(c1)nc(-c1ccccn1)n2[C@@H]1CCC[C@H](NC(=O)c2ccc(Br)s2)C1` [Compound 102]: the IC50 against BCAT1 was no less than 1000 nM; with GM00371 cells (Homo sapiens) it was 0.5 to 1 µM; in series [2] (24 hours), 0.5 to 1 µM.
`CNC(=O)c1ccc2c(c1)nc(-c1cccs1)n2[C@H]1CCC[C@@H](NC(=O)c2ccc(Br)s2)C1` [Compound 193]: the IC50 on BCAT1 lay within 500 to 1000 nM; in the series on GM00371 cells (Homo sapiens), 0.5 to 1 µM; in series [2] (Homo sapiens, 24 h), 0.1 to 0.5 µM.
